Source: US20230058171A1, “NEW ORAL PHARMACEUTICAL COMPOSITION FOR CANCER THERAPY” (BOEHRINGER INGELHEIM INTERNATIONAL GMBH, priority 2021, published 2023)

Tested on: patients with advanced or metastatic solid tumors
Assay: Trial 1403-0001 Phase Ia dose escalation, Arm B (D1 D8 q4w): adverse events
Type: in vivo
Conditions: Arm B D1 D8 q4w
Method: The Phase Ia dose escalation part aimed to define the Maximum Tolerated Dose (MTD) and the Recommended Dose for Expansion (RDE) for the MDM2-antagonist of formula I based on safety and tolerability, pharmacokinetics, pharmacodynamics, and preliminary efficacy. The RDE will be further explored in the Phase Ib expansion part of the trial.
Dose levels evaluated in Arm A were 10, 20, 30, 45, 50, 60, and 80 mg. Dose levels evaluated in Arm B (referring to the dose administered on Day 1 and Day 8) were 5, 10, 15, 20, 30, 45, and 60 mg.

Q: How did the “AEs leading to Discontinuation: Dose limiting toxicity, %” value (“AEs leading … Dose limiting toxicity, %” below) (5 mg) turn out when `Cc1c(C(=O)O)ccc2c3n(nc12)[C@@H]1[C@H](C3)N(CC2CC2)[C@@]2(C(=O)Nc3cc(Cl)ccc32)[C@H]1c1cccc(Cl)c1F` [MDM2-antagonist of formula I, (2′S,3′S,3a'S,10a'S)-6-chloro-3′-(3-chloro-2-fluorophenyl)-1′-(cyclopropylmethyl)-6′-methyl-2-oxo-1,2,3′,3a′,10′,10a′-hexahydro-1′H-spiro[indole-3,2′-pyrrolo[2′,3′:4,5]pyrrolo[1,2-b]indazole]-7′-carboxylic acid] was run?
A: The value was 0%.

Q: And the “AEs leading to Discontinuation: Other adverse event, %” value (“AEs leading … Other adverse event, %” for short) (5 mg)?
A: Its value is 0%.

Q: What about the “Patients with Dose limiting toxicity, %” value (5 mg) of the same molecule?
A: The value was 0%.

Q: And the “Serious AEs: Cogenital Anomaly or Birth Defect, %” value (5 mg)?
A: Its value is 0%.

Q: And the “Serious AEs: Is Life Threatening, %” value (5 mg)?
A: The value was 0%.

Q: And the “Serious AEs: Other Medically Important Serious Event, %” value (5 mg)?
A: The value was 0%.

Q: What about the “Serious AEs: Persists of Signif. Disability/Incapacity, %” value (5 mg) of the same molecule?
A: The value was 0%.

Q: What about the “Serious AEs: Requires or Prolongs Hospitalization, %” value (5 mg) of the same molecule?
A: Its value is 0%.

Q: And the “Serious AEs: Results in Death, %” value (5 mg)?
A: Its value is 0%.

Q: And the “Subjects with AEs leading to Discontinuation of trial drug, %” value (5 mg)?
A: The value was 0%.

Q: What about the “Subjects with AEs leading to dose reduction of trial drug, %” value (5 mg) of the same molecule?
A: The value was 0%.

Q: What about the “Subjects with any AE, %” value (5 mg) of the same molecule?
A: The value was 100%.

Q: What about the “Subjects with investigator defined drug-related AEs, %” value (5 mg) of the same molecule?
A: Its value is 33.3%.

Q: What about the “Subjects with maximum CTC Grade 1, %” value (5 mg) of the same molecule?
A: Its value is 66.7%.

Q: And the “Subjects with maximum CTC Grade 2, %” value (5 mg)?
A: Its value is 33.3%.

Q: And the “Subjects with maximum CTC Grade 3, %” value (5 mg)?
A: The value was 0%.

Q: What about the “Subjects with maximum CTC Grade 4, %” value (5 mg) of the same molecule?
A: Its value is 0%.

Q: What about the “Subjects with maximum CTC Grade 5, %” value (5 mg) of the same molecule?
A: Its value is 0%.

Q: What about the “Subjects with serious AEs, %” value (5 mg) of the same molecule?
A: Its value is 0%.

Q: And the “AEs leading … Dose limiting toxicity, %” value (10 mg)?
A: The value was 0%.

Q: What about the “AEs leading … Other adverse event, %” value (10 mg) of the same molecule?
A: Its value is 0%.

Q: And the “Patients with Dose limiting toxicity, %” value (10 mg)?
A: Its value is 0%.

Q: And the “Serious AEs: Cogenital Anomaly or Birth Defect, %” value (10 mg)?
A: Its value is 0%.

Q: And the “Serious AEs: Is Life Threatening, %” value (10 mg)?
A: Its value is 0%.

Q: And the “Serious AEs: Other Medically Important Serious Event, %” value (10 mg)?
A: The value was 0%.

Q: What about the “Serious AEs: Persists of Signif. Disability/Incapacity, %” value (10 mg) of the same molecule?
A: Its value is 0%.

Q: What about the “Serious AEs: Requires or Prolongs Hospitalization, %” value (10 mg) of the same molecule?
A: Its value is 33.3%.

Q: And the “Serious AEs: Results in Death, %” value (10 mg)?
A: The value was 0%.

Q: And the “Subjects with AEs leading to Discontinuation of trial drug, %” value (10 mg)?
A: The value was 0%.

Q: What about the “Subjects with AEs leading to dose reduction of trial drug, %” value (10 mg) of the same molecule?
A: The value was 33.3%.

Q: What about the “Subjects with any AE, %” value (10 mg) of the same molecule?
A: Its value is 100%.

Q: What about the “Subjects with investigator defined drug-related AEs, %” value (10 mg) of the same molecule?
A: The value was 100%.

Q: And the “Subjects with maximum CTC Grade 1, %” value (10 mg)?
A: Its value is 0%.

Q: What about the “Subjects with maximum CTC Grade 2, %” value (10 mg) of the same molecule?
A: Its value is 33.3%.

Q: And the “Subjects with maximum CTC Grade 3, %” value (10 mg)?
A: Its value is 66.7%.

Q: What about the “Subjects with maximum CTC Grade 4, %” value (10 mg) of the same molecule?
A: Its value is 0%.

Q: And the “Subjects with maximum CTC Grade 5, %” value (10 mg)?
A: The value was 0%.

Q: And the “Subjects with serious AEs, %” value (10 mg)?
A: The value was 33.3%.

Q: What about the “AEs leading … Dose limiting toxicity, %” value (15 mg) of the same molecule?
A: The value was 0%.

Q: What about the “AEs leading … Other adverse event, %” value (15 mg) of the same molecule?
A: Its value is 0%.

Q: And the “Patients with Dose limiting toxicity, %” value (15 mg)?
A: The value was 0%.

Q: What about the “Serious AEs: Cogenital Anomaly or Birth Defect, %” value (15 mg) of the same molecule?
A: Its value is 0%.

Q: What about the “Serious AEs: Is Life Threatening, %” value (15 mg) of the same molecule?
A: The value was 0%.

Q: And the “Serious AEs: Other Medically Important Serious Event, %” value (15 mg)?
A: The value was 0%.

Q: And the “Serious AEs: Persists of Signif. Disability/Incapacity, %” value (15 mg)?
A: The value was 0%.

Q: And the “Serious AEs: Requires or Prolongs Hospitalization, %” value (15 mg)?
A: Its value is 33.3%.

Q: And the “Serious AEs: Results in Death, %” value (15 mg)?
A: Its value is 0%.

Q: And the “Subjects with AEs leading to Discontinuation of trial drug, %” value (15 mg)?
A: The value was 0%.

Q: What about the “Subjects with AEs leading to dose reduction of trial drug, %” value (15 mg) of the same molecule?
A: The value was 0%.

Q: What about the “Subjects with any AE, %” value (15 mg) of the same molecule?
A: Its value is 100%.

Q: And the “Subjects with investigator defined drug-related AEs, %” value (15 mg)?
A: The value was 100%.

Q: And the “Subjects with maximum CTC Grade 1, %” value (15 mg)?
A: The value was 33.3%.

Q: What about the “Subjects with maximum CTC Grade 2, %” value (15 mg) of the same molecule?
A: Its value is 66.7%.

Q: What about the “Subjects with maximum CTC Grade 3, %” value (15 mg) of the same molecule?
A: Its value is 0%.

Q: What about the “Subjects with maximum CTC Grade 4, %” value (15 mg) of the same molecule?
A: The value was 0%.

Q: What about the “Subjects with maximum CTC Grade 5, %” value (15 mg) of the same molecule?
A: Its value is 0%.

Q: And the “Subjects with serious AEs, %” value (15 mg)?
A: The value was 33.3%.

Q: And the “AEs leading … Dose limiting toxicity, %” value (20 mg)?
A: The value was 0%.

Q: And the “AEs leading … Other adverse event, %” value (20 mg)?
A: Its value is 0%.

Q: What about the “Patients with Dose limiting toxicity, %” value (20 mg) of the same molecule?
A: Its value is 0%.

Q: What about the “Serious AEs: Cogenital Anomaly or Birth Defect, %” value (20 mg) of the same molecule?
A: The value was 0%.

Q: What about the “Serious AEs: Is Life Threatening, %” value (20 mg) of the same molecule?
A: Its value is 0%.

Q: And the “Serious AEs: Other Medically Important Serious Event, %” value (20 mg)?
A: Its value is 33.3%.

Q: What about the “Serious AEs: Persists of Signif. Disability/Incapacity, %” value (20 mg) of the same molecule?
A: The value was 0%.

Q: And the “Serious AEs: Requires or Prolongs Hospitalization, %” value (20 mg)?
A: The value was 33.3%.

Q: And the “Serious AEs: Results in Death, %” value (20 mg)?
A: Its value is 0%.

Q: What about the “Subjects with AEs leading to Discontinuation of trial drug, %” value (20 mg) of the same molecule?
A: Its value is 0%.

Q: What about the “Subjects with AEs leading to dose reduction of trial drug, %” value (20 mg) of the same molecule?
A: The value was 0%.

Q: And the “Subjects with any AE, %” value (20 mg)?
A: Its value is 100%.

Q: What about the “Subjects with investigator defined drug-related AEs, %” value (20 mg) of the same molecule?
A: Its value is 100%.

Q: What about the “Subjects with maximum CTC Grade 1, %” value (20 mg) of the same molecule?
A: The value was 0%.

Q: And the “Subjects with maximum CTC Grade 2, %” value (20 mg)?
A: Its value is 66.7%.

Q: And the “Subjects with maximum CTC Grade 3, %” value (20 mg)?
A: Its value is 33.3%.

Q: And the “Subjects with maximum CTC Grade 4, %” value (20 mg)?
A: Its value is 0%.

Q: And the “Subjects with maximum CTC Grade 5, %” value (20 mg)?
A: Its value is 0%.

Q: And the “Subjects with serious AEs, %” value (20 mg)?
A: Its value is 33.3%.

Q: And the “AEs leading … Dose limiting toxicity, %” value (30 mg)?
A: The value was 0%.

Q: What about the “AEs leading … Other adverse event, %” value (30 mg) of the same molecule?
A: Its value is 0%.

Q: And the “Patients with Dose limiting toxicity, %” value (30 mg)?
A: Its value is 0%.

Q: And the “Serious AEs: Cogenital Anomaly or Birth Defect, %” value (30 mg)?
A: The value was 0%.

Q: What about the “Serious AEs: Is Life Threatening, %” value (30 mg) of the same molecule?
A: The value was 0%.

Q: What about the “Serious AEs: Other Medically Important Serious Event, %” value (30 mg) of the same molecule?
A: Its value is 25.0%.

Q: What about the “Serious AEs: Persists of Signif. Disability/Incapacity, %” value (30 mg) of the same molecule?
A: Its value is 0%.

Q: And the “Serious AEs: Requires or Prolongs Hospitalization, %” value (30 mg)?
A: The value was 0%.

Q: And the “Serious AEs: Results in Death, %” value (30 mg)?
A: Its value is 0%.

Q: And the “Subjects with AEs leading to Discontinuation of trial drug, %” value (30 mg)?
A: Its value is 0%.

Q: And the “Subjects with AEs leading to dose reduction of trial drug, %” value (30 mg)?
A: The value was 50%.
